Measured values as given in PubChem BioAssay (NCI).
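Test compounds were applied to cells in 96-well plates for 48 hours at 5 doses. At the GI50, growth is halved. Definition used: TGI = concentration required for complete inhibition of growth.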

What was measured:
Assay in all cases: inhibition of tumour cell growth, NCI panel, 48 h
M14 melanoma = tested on: M14 melanoma
RPMI-8226 leukemia = tested on: RPMI-8226 leukemia
SF-295 CNS = tested on: SF-295 CNS
HOP-62 NSCLC = tested on: HOP-62 NSCLC
786-0 renal = tested on: 786-0 renal
HOP-92 NSCLC = tested on: HOP-92 NSCLC
A549 NSCLC = tested on: A549 NSCLC
CAKI-1 renal = tested on: CAKI-1 renal
NCI-H23 lung = tested on: NCI-H23 lung
TK-10 renal = tested on: TK-10 renal
LOX IMVI melanoma = tested on: LOX IMVI melanoma
HCT-15 colon = tested on: HCT-15 colon
MDA-MB-435 = tested on: MDA-MB-435
IGROV1 ovarian = tested on: IGROV1 ovarian
MOLT-4 leukemia = tested on: MOLT-4 leukemia
SF-268 CNS = tested on: SF-268 CNS
NCI/ADR-RES ovarian = tested on: NCI/ADR-RES ovarian
SK-OV-3 ovarian = tested on: SK-OV-3 ovarian
DU-145 prostate = tested on: DU-145 prostate
K-562 leukemia = tested on: K-562 leukemia
HCT-116 colon = tested on: HCT-116 colon
OVCAR-8 ovarian = tested on: OVCAR-8 ovarian
UACC-62 melanoma = tested on: UACC-62 melanoma
ACHN renal = tested on: ACHN renal
SN12C renal = tested on: SN12C renal
RXF 393 renal = tested on: RXF 393 renal
MCF7 breast = tested on: MCF7 breast
CCRF-CEM leukemia = tested on: CCRF-CEM leukemia
SK-MEL-28 melanoma = tested on: SK-MEL-28 melanoma
NCI-H522 lung = tested on: NCI-H522 lung
OVCAR-4 ovarian = tested on: OVCAR-4 ovarian
UO-31 renal = tested on: UO-31 renal
KM12 colon = tested on: KM12 colon
OVCAR-3 ovarian = tested on: OVCAR-3 ovarian
HCC-2998 colon = tested on: HCC-2998 colon
PC-3 prostate = tested on: PC-3 prostate
U251 CNS = tested on: U251 CNS
NCI-H460 lung = tested on: NCI-H460 lung
T-47D breast = tested on: T-47D breast
NCI-H226 lung = tested on: NCI-H226 lung
OVCAR-5 ovarian = tested on: OVCAR-5 ovarian
SR leukemia = tested on: SR leukemia
COLO 205 colon = tested on: COLO 205 colon
SK-MEL-5 melanoma = tested on: SK-MEL-5 melanoma
A498 renal = tested on: A498 renal
SK-MEL-2 melanoma = tested on: SK-MEL-2 melanoma
SNB-19 CNS = tested on: SNB-19 CNS
MALME-3M melanoma = tested on: MALME-3M melanoma
HS 578T breast = tested on: HS 578T breast
SF-539 CNS = tested on: SF-539 CNS
SNB-75 CNS = tested on: SNB-75 CNS
SW-620 colon = tested on: SW-620 colon
HL-60(TB) leukemia = tested on: HL-60(TB) leukemia
EKVX NSCLC = tested on: EKVX NSCLC
MDA-MB-231 breast = tested on: MDA-MB-231 breast
UACC-257 melanoma = tested on: UACC-257 melanoma
HT29 colon = tested on: HT29 colon
BT-549 breast = tested on: BT-549 breast

## C=C(C)[C@@H]1C/C=C(/COC(C)=O)CC[C@H]2O[C@@]2(C)CC/C=C(\C)CC1
M14 melanoma
  GI50: > 100 µM
  TGI: > 100 µM
RPMI-8226 leukemia
  GI50: 21.1 µM
  TGI: 44 µM
SF-295 CNS
  GI50: > 100 µM
  TGI: > 100 µM
HOP-62 NSCLC
  GI50: > 100 µM
  TGI: > 100 µM
786-0 renal
  GI50: 67.9 µM
  TGI: > 100 µM
HOP-92 NSCLC
  GI50: > 100 µM
  TGI: > 100 µM
A549 NSCLC
  GI50: 40.1 µM
  TGI: > 100 µM
CAKI-1 renal
  GI50: > 100 µM
  TGI: > 100 µM
NCI-H23 lung
  GI50: > 100 µM
  TGI: > 100 µM
TK-10 renal
  GI50: > 100 µM
  TGI: > 100 µM
LOX IMVI melanoma
  GI50: 20.3 µM
  TGI: 46.5 µM
HCT-15 colon
  GI50: > 100 µM
  TGI: > 100 µM
MDA-MB-435
  GI50: > 100 µM
  TGI: > 100 µM
IGROV1 ovarian
  GI50: > 100 µM
  TGI: > 100 µM
MOLT-4 leukemia
  GI50: 28.4 µM
  TGI: 82.3 µM
SF-268 CNS
  GI50: > 100 µM
  TGI: > 100 µM
NCI/ADR-RES ovarian
  GI50: > 100 µM
  TGI: > 100 µM
SK-OV-3 ovarian
  GI50: > 100 µM
  TGI: > 100 µM
DU-145 prostate
  GI50: > 100 µM
  TGI: > 100 µM
K-562 leukemia
  GI50: 21.4 µM
  TGI: 45.1 µM
HCT-116 colon
  GI50: 38 µM
  TGI: > 100 µM
OVCAR-8 ovarian
  GI50: > 100 µM
  TGI: > 100 µM
UACC-62 melanoma
  GI50: > 100 µM
  TGI: > 100 µM
ACHN renal
  GI50: > 100 µM
  TGI: > 100 µM
SN12C renal
  GI50: > 100 µM
  TGI: > 100 µM
RXF 393 renal
  GI50: 33.6 µM
  TGI: > 100 µM
MCF7 breast
  GI50: 81 µM
  TGI: > 100 µM
CCRF-CEM leukemia
  GI50: 26.9 µM
  TGI: 54.8 µM
SK-MEL-28 melanoma
  GI50: > 100 µM
  TGI: > 100 µM
NCI-H522 lung
  GI50: > 100 µM
  TGI: > 100 µM
OVCAR-4 ovarian
  GI50: > 100 µM
  TGI: > 100 µM
UO-31 renal
  GI50: 30.4 µM
  TGI: > 100 µM
KM12 colon
  GI50: > 100 µM
  TGI: > 100 µM
OVCAR-3 ovarian
  GI50: > 100 µM
  TGI: > 100 µM
HCC-2998 colon
  GI50: > 100 µM
  TGI: > 100 µM
PC-3 prostate
  GI50: > 100 µM
  TGI: > 100 µM
U251 CNS
  GI50: > 100 µM
  TGI: > 100 µM
NCI-H460 lung
  GI50: > 100 µM
  TGI: > 100 µM
T-47D breast
  GI50: > 100 µM
  TGI: > 100 µM
NCI-H226 lung
  GI50: > 100 µM
  TGI: > 100 µM
OVCAR-5 ovarian
  GI50: > 100 µM
  TGI: > 100 µM
SR leukemia
  GI50: 34.3 µM
  TGI: 91.5 µM
COLO 205 colon
  GI50: > 100 µM
  TGI: > 100 µM
SK-MEL-5 melanoma
  GI50: > 100 µM
  TGI: > 100 µM
A498 renal
  GI50: > 100 µM
  TGI: > 100 µM
SK-MEL-2 melanoma
  GI50: > 100 µM
  TGI: > 100 µM
SNB-19 CNS
  GI50: > 100 µM
  TGI: > 100 µM
MALME-3M melanoma
  GI50: > 100 µM
  TGI: > 100 µM
HS 578T breast
  GI50: > 100 µM
  TGI: > 100 µM

## CC1(C)N=C(N)N=C(N)N1c1cccc(CCCCc2ccc(Cl)c(S(=O)(=O)F)c2)c1
M14 melanoma
  GI50: 3.21 µM
  TGI: 17.4 µM
RPMI-8226 leukemia
  GI50: 4.97 µM
  TGI: 25.1 µM
SF-295 CNS
  GI50: 2.56 µM
  TGI: 13.4 µM
HOP-62 NSCLC
  GI50: 6.34 µM
  TGI: 21.2 µM
786-0 renal
  GI50: 2.67 µM
  TGI: 16.3 µM
HOP-92 NSCLC
  GI50: 4.7 µM
  TGI: 21.4 µM
A549 NSCLC
  GI50: 4.38 µM
  TGI: 36 µM
CAKI-1 renal
  GI50: 21.3 µM
  TGI: > 100 µM
NCI-H23 lung
  GI50: 2.83 µM
  TGI: 18.1 µM
TK-10 renal
  GI50: 10.7 µM
  TGI: 39.3 µM
LOX IMVI melanoma
  GI50: 0.433 µM
  TGI: 16.1 µM
HCT-15 colon
  GI50: 6.47 µM
  TGI: > 100 µM
SF-539 CNS
  GI50: 0.504 µM
  TGI: 13 µM
MDA-MB-435
  GI50: 0.445 µM
  TGI: 15.7 µM
SNB-75 CNS
  GI50: 10.3 µM
  TGI: 22.4 µM
IGROV1 ovarian
  GI50: 0.66 µM
  TGI: 18.8 µM
MOLT-4 leukemia
  GI50: 1.82 µM
  TGI: 19.2 µM
SF-268 CNS
  GI50: 1.47 µM
  TGI: 16.2 µM
NCI/ADR-RES ovarian
  GI50: > 100 µM
  TGI: > 100 µM
SK-OV-3 ovarian
  GI50: 11.7 µM
  TGI: 27.8 µM
SW-620 colon
  GI50: 0.455 µM
  TGI: 15.8 µM
HL-60(TB) leukemia
  GI50: 0.563 µM
  TGI: 12.1 µM
DU-145 prostate
  GI50: 4.09 µM
  TGI: 17.1 µM
EKVX NSCLC
  GI50: 11.4 µM
  TGI: 39.8 µM
MDA-MB-231 breast
  GI50: 11 µM
  TGI: 25.8 µM
K-562 leukemia
  GI50: 0.521 µM
  TGI: 15.2 µM
HCT-116 colon
  GI50: 0.457 µM
  TGI: 13.5 µM
OVCAR-8 ovarian
  GI50: 9.28 µM
  TGI: > 100 µM
UACC-62 melanoma
  GI50: 0.732 µM
  TGI: 17.2 µM
ACHN renal
  GI50: 20.9 µM
  TGI: > 100 µM
UACC-257 melanoma
  GI50: 1.14 µM
  TGI: 18.7 µM
SN12C renal
  GI50: 0.967 µM
  TGI: 16.4 µM
RXF 393 renal
  GI50: 0.459 µM
  TGI: 16.1 µM
MCF7 breast
  GI50: 3.28 µM
  TGI: 17.7 µM
CCRF-CEM leukemia
  GI50: 0.764 µM
  TGI: 17.6 µM
SK-MEL-28 melanoma
  GI50: 7.67 µM
  TGI: 21.2 µM
NCI-H522 lung
  GI50: 1.26 µM
  TGI: 18.8 µM
OVCAR-4 ovarian
  GI50: 11.8 µM
  TGI: 29.6 µM
HT29 colon
  GI50: 0.441 µM
  TGI: 16.3 µM
UO-31 renal
  GI50: > 100 µM
  TGI: > 100 µM
KM12 colon
  GI50: 1.79 µM
  TGI: 15.6 µM
OVCAR-3 ovarian
  GI50: 5.58 µM
  TGI: 18.5 µM
HCC-2998 colon
  GI50: 1.92 µM
  TGI: 16 µM
U251 CNS
  GI50: 0.655 µM
  TGI: 21.3 µM
NCI-H460 lung
  GI50: 0.938 µM
  TGI: 14.5 µM
T-47D breast
  GI50: 13.8 µM
  TGI: 30.9 µM
NCI-H226 lung
  GI50: 8.38 µM
  TGI: 28.5 µM
BT-549 breast
  GI50: 1.35 µM
  TGI: 17.7 µM
OVCAR-5 ovarian
  GI50: 6.02 µM
  TGI: 22.1 µM
SR leukemia
  GI50: 2.44 µM
  TGI: 16.8 µM
COLO 205 colon
  GI50: 1.75 µM
  TGI: 18.6 µM
SK-MEL-5 melanoma
  GI50: 0.612 µM
  TGI: 12.9 µM
A498 renal
  GI50: 16.4 µM
  TGI: 52.9 µM
SK-MEL-2 melanoma
  GI50: 8.53 µM
  TGI: 25.4 µM
SNB-19 CNS
  GI50: 3.3 µM
  TGI: 18.4 µM
MALME-3M melanoma
  GI50: 9.71 µM
  TGI: 28.3 µM
HS 578T breast
  GI50: 12.6 µM
  TGI: 35.9 µM
